Data reported in ChEMBL document CHEMBL1909046, “DrugMatrix in vitro pharmacology data”.

What was measured:
[1] = DRUGMATRIX: Calcium Channel Type L, Phenylalkylamine radioligand binding (ligand: [3H] (-)-Desmethoxyverapamil (D-888)); format: cell membranes, Rattus norvegicus, Wistar, Brain, Membrane; settings: Not Active = under 50% inhibition at 10 µM
[2] = DRUGMATRIX: Imidazoline I2, Central radioligand binding (ligand: [3H] Idazoxan); format: cell membranes, Rattus norvegicus, Wistar, Cerebral cortex, Membrane; settings: Not Active = under 50% inhibition at 10 µM
[3] = biological target: T1, Muscarinic acetylcholine receptor M2 (Homo sapiens, UniProt P08172); format: cell membranes, CHO-K1, Membrane; settings: cho-k1; note: in other assays of this panel Not Active means under 50% inhibition at 10 µM
T1 sequence (P08172 whole entry): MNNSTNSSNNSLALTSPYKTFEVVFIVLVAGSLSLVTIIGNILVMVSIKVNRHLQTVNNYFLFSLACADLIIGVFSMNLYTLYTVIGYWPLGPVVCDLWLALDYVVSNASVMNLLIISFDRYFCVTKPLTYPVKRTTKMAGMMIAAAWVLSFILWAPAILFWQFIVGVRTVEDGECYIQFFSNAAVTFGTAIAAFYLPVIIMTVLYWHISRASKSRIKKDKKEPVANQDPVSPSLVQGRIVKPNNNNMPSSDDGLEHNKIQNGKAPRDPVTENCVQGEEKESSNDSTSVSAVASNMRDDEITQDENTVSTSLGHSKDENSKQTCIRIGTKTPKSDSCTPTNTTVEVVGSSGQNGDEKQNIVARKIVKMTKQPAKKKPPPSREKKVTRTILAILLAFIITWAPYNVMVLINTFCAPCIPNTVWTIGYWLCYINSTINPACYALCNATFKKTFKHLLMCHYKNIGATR

[4] = DRUGMATRIX: Nicotinic Acetylcholine radioligand binding (ligand: [125I] Epibatidine); format: cell membranes, Membrane; settings: imr-32; Not Active = under 50% inhibition at 10 µM
[5] = DRUGMATRIX: Potassium Channel [KATP] radioligand binding (ligand: [3H] Glyburide); format: cell membranes, Membrane; settings: hit-t15; Not Active = under 50% inhibition at 10 µM
[6] = biological target: Tyrosine-protein kinase Fyn (Homo sapiens, UniProt P06241); experiment: biochemical; format: cell-based, Insect cells;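 note: enzymatic inhibition of Fyn kinase activity measured with Poly(Glu:Tyr) as the phosphorylation substrate; in other assays of this panel Not Active means under 50% inhibition at 10 µM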
Tyrosine-protein kinase Fyn, sequence (P06241 whole entry): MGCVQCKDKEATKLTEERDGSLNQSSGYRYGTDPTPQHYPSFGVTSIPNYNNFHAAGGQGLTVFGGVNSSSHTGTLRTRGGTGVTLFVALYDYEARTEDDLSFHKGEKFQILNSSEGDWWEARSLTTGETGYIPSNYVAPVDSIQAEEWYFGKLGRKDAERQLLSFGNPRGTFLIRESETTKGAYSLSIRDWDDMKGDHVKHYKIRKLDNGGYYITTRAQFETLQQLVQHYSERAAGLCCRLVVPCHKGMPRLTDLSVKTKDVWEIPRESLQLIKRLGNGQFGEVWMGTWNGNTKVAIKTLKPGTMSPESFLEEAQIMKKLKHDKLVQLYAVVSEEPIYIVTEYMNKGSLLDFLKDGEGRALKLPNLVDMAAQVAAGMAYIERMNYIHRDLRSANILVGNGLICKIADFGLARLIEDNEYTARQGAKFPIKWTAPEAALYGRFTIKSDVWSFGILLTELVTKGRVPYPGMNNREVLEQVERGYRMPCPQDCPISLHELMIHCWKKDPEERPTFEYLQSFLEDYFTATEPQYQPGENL

## CC(C)(C)NC(=O)[C@@H]1C[C@@H]2CCCC[C@@H]2CN1C[C@@H](O)[C@H](Cc1ccccc1)NC(=O)[C@H](CC(N)=O)NC(=O)c1ccc2ccccc2n1
[1]; read-out: IC50
  IC50: 6.83 µM
[1]; read-out: Ki
  Ki: 6.65 µM
[2]
  IC50: Not Active
  Ki: Not Active
[3]
  IC50: Not Active
[4]
  IC50: Not Active
  Ki: Not Active
[5]
  IC50: Not Active
  Ki: Not Active
[6]; insect cells
  IC50: Not Active

## CC(=O)[C@@]1(O)CC[C@H]2[C@@H]3C[C@H](C)C4=CC(=O)CC[C@]4(C)[C@H]3CC[C@@]21C
[1]
  IC50: Not Active
  Ki: Not Active
[2]
  IC50: Not Active
  Ki: Not Active
[3]
  IC50: Not Active
[4]
  IC50: Not Active
  Ki: Not Active
[5]
  IC50: Not Active
  Ki: Not Active
[6]; insect cells
  IC50: Not Active

## N[C@@H](Cc1ccc(N(CCCl)CCCl)cc1)C(=O)O
[1]
  IC50: Not Active
  Ki: Not Active
[2]
  IC50: Not Active
  Ki: Not Active
[3]
  IC50: Not Active
[4]
  IC50: Not Active
  Ki: Not Active
[5]
  IC50: Not Active
  Ki: Not Active
[6]; insect cells
  IC50: Not Active

## CCCCc1oc2ccccc2c1C(=O)c1cc(I)c(OCCN(CC)CC)c(I)c1 [AMIODARONE]
[6]; read-out: IC50
  IC50: 0.817 µM

## OCCN(CCO)c1nc(N2CCCCC2)c2nc(N(CCO)CCO)nc(N3CCCCC3)c2n1 [DIPYRIDAMOLE]
[1]
  IC50: Not Active
  Ki: Not Active
[2]
  IC50: Not Active
  Ki: Not Active
[3]
  IC50: Not Active
[4]
  IC50: Not Active
  Ki: Not Active
[5]
  IC50: Not Active
  Ki: Not Active
[6]; insect cells
  IC50: Not Active

## Cc1oncc1C(=O)Nc1ccc(C(F)(F)F)cc1 [LEFLUNOMIDE]
[1]
  IC50: Not Active
  Ki: Not Active
[2]
  IC50: Not Active
  Ki: Not Active
[3]
  IC50: Not Active
[4]
  IC50: Not Active
  Ki: Not Active
[5]
  IC50: Not Active
  Ki: Not Active
[6]; insect cells
  IC50: Not Active

## c1ccc([C@H]2CN3CCSC3=N2)cc1 [LEVAMISOLE]
[1]
  IC50: Not Active
  Ki: Not Active
[2]
  IC50: Not Active
  Ki: Not Active
[3]
  IC50: Not Active
[4]
  IC50: Not Active
  Ki: Not Active
[5]
  IC50: Not Active
  Ki: Not Active
[6]; insect cells
  IC50: Not Active

## N[C@@H](Cc1ccc(O)c(O)c1)C(=O)O [LEVODOPA]
[1]
  IC50: Not Active
  Ki: Not Active
[2]
  IC50: Not Active
  Ki: Not Active
[3]
  IC50: Not Active
[4]
  IC50: Not Active
  Ki: Not Active
[5]
  IC50: Not Active
  Ki: Not Active
[6]; read-out: IC50
  IC50: 2.15 µM

## N[C@@H](Cc1cc(I)c(Oc2ccc(O)c(I)c2)c(I)c1)C(=O)O [LIOTHYRONINE]
[3]
  IC50: Not Active
[6]; insect cells
  IC50: Not Active

## O=NN(CCCl)C(=O)NC1CCCCC1 [LOMUSTINE]
[1]
  IC50: Not Active
  Ki: Not Active
[2]
  IC50: Not Active
  Ki: Not Active
[3]
  IC50: Not Active
[4]
  IC50: Not Active
  Ki: Not Active
[5]
  IC50: Not Active
  Ki: Not Active
[6]; insect cells
  IC50: Not Active

## CCOC(=O)N1CCC(=C2c3ccc(Cl)cc3CCc3cccnc32)CC1 [LORATADINE]
[1]
  IC50: Not Active
  Ki: Not Active
[2]
  IC50: Not Active
  Ki: Not Active
[3]
  IC50: Not Active
[4]
  IC50: Not Active
  Ki: Not Active
[5]
  IC50: Not Active
  Ki: Not Active
[6]; insect cells
  IC50: Not Active

## Cn1ccnc1S [METHIMAZOLE]
[1]
  IC50: Not Active
  Ki: Not Active
[2]
  IC50: Not Active
  Ki: Not Active
[3]
  IC50: Not Active
[4]
  IC50: Not Active
  Ki: Not Active
[5]
  IC50: Not Active
  Ki: Not Active
[6]; insect cells
  IC50: Not Active

## CC[C@@H](CO)NC(=O)[C@@H]1C=C2c3cccc4[nH]cc(c34)C[C@H]2N(C)C1 [METHYLERGONOVINE]
[1]
  IC50: Not Active
  Ki: Not Active
[2]; read-out: IC50
  IC50: 2.93 µM
[2]; read-out: Ki
  Ki: 1.96 µM
[3]
  IC50: Not Active
[4]
  IC50: Not Active
  Ki: Not Active
[5]
  IC50: Not Active
  Ki: Not Active
[6]; insect cells
  IC50: Not Active

## COc1nc(C)nc(Cl)c1NC1=NCCN1 [MOXONIDINE]
[1]
  IC50: Not Active
  Ki: Not Active
[2]; read-out: IC50
  IC50: 1.48 µM
[2]; read-out: Ki
  Ki: 0.984 µM
[3]
  IC50: Not Active
[4]
  IC50: Not Active
  Ki: Not Active
[5]
  IC50: Not Active
  Ki: Not Active
[6]; insect cells
  IC50: Not Active

## COc1c(C)c2c(c(O)c1C/C=C(\C)CCC(=O)O)C(=O)OC2 [MYCOPHENOLIC ACID]
[1]
  IC50: Not Active
  Ki: Not Active
[2]
  IC50: Not Active
  Ki: Not Active
[3]
  IC50: Not Active
[4]
  IC50: Not Active
  Ki: Not Active
[5]
  IC50: Not Active
  Ki: Not Active
[6]; insect cells
  IC50: Not Active
